US20080051597A1, “Process for Producing 2-Methyladamantan-2-Yl (Meth)Acrylate and 2-Methyladamantan-2-Yl (Meth)Acrylate” (Mitsubishi Chemical Corporation, priority 2004, published 2008)

Test: Solubility of methyleneadamantane in organic compound
Assay type: physicochemical
Details: supernatant analysed by gas chromatography
Procedure: To a predetermined amount of an organic solvent was added 2-methyleneadamantane in such an amount that it remains in the solvent after dissolution. After stirring the mixture while keeping the temperature at 0° C., the resulting mixture was allowed to stand. A supernatant was collected therefrom and its composition was analyzed by gas chromatography.
The solubility of 2-methyleneadamantane and the amount of 2-methyleneadamantane in the reaction product were measured by gas chromatography analysis described below. • Gas chromatography analyzer: “GC-14B”, product of Shimadzu Corporation • Column: “TC-1”, product of Tokyo Chemical Industry (inner diameter: 0.25 mm, thickness of filler: 0.25 μm, length: 60 m) • Feed port temperature: 150° C. • Detector: FID • Detector temperature: 280° C. • Conditions of column oven: The column oven was retained at 100° C. for 3 minutes, heated to 180° C. at 10° C./min, retained at 180° C. for 5 minutes, heated to 280° C. at 10° C./min, and then retained at 280° C. for 5 minutes.

solubility of methyleneadamantane in 100 g of n-undecane at 0° C.: 101 g
SMILES: C=C1C2CC3CC(C2)CC1C3 [methyleneadamantane, 2-methyleneadamantane]
